The target in assay [1] is T1, STAT6 (Homo sapiens, UniProt P42226).
T1 construct: These cells express endogenous STAT6; host or cells: HeLa LgBiT clone 4.14
T1 sequence (P42226 1-847): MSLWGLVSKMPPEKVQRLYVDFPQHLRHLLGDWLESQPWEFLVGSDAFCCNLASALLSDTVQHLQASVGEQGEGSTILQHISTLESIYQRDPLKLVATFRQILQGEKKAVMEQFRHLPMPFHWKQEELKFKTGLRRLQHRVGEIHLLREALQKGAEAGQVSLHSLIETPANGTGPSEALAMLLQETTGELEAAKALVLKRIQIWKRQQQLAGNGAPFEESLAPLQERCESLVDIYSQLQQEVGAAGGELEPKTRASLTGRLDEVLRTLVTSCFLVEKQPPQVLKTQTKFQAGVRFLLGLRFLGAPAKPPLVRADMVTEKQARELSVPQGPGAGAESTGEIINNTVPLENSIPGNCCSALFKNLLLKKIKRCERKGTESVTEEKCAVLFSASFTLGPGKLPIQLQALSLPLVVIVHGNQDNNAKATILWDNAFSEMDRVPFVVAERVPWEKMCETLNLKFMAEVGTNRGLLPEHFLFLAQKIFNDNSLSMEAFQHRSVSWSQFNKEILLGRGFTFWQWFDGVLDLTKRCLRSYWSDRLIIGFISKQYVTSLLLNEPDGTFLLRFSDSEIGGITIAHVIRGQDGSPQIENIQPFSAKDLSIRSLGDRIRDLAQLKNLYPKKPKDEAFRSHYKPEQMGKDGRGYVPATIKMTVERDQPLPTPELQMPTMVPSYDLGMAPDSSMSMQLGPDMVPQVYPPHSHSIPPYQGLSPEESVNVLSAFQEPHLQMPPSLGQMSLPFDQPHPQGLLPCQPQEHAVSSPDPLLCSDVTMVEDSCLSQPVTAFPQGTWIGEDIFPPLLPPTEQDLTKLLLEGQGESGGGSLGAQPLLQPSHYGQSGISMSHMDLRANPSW
Description: Stat6 Degrader Assay (HiBiT based, HeLa LgBiT clone 4.14). Conditions: HeLa LgBiT clone 4.14 HiBiT-STAT6, 4-24 h incubation; values given for compounds with >80% Emax; geometric mean; read-out: STAT6 degradation DC50. The class given is cell-based. The essentials:
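HeLa LgBiT clone 4.14 cells with CRISPR HiBiT-tagged endogenous STAT6, 5000 cells/well, compound dosed then incubated 4-24 h at 37° C, 5% CO2. Nano-Glo substrate added, 0.5 h, luminescence read as non-degraded STAT6. Terfenadine 50 μM (cell kill) defines 100% degradation.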

Assay [2] relates to Eotaxin-3 release in human whole blood stimulated with IL-4. In words: Human Whole Blood Eotaxin-3 Assay (IL-4 stimulated eotaxin-3 release). Conditions: IL-4 stimulation, 48 h, values given for compounds with >80% Emax, geometric mean. The class given is cell-based. The method in brief:
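Lithium-heparin human whole blood preincubated 2 h at 37° C with 4-fold serially diluted compounds (0.5% DMSO), then stimulated with recombinant human IL-4 ([…]) for 48 h. Eotaxin-3 (CCL26) in supernatant quantified by MSD immunoassay.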

pEC50: −log10 of the molar value.

As to `CNc1cc(=O)n(-c2ccnc3c2cc(CN2CCC(c4c(F)cc(C(=O)N5CCC(CN6CCN(Cc7ccc8c(c7)C(C)(C)C(=O)N8[C@@H]7CCC(=O)NC7=O)CC6)CC5)cc4F)CC2)n3C)cc1F` (single isomer, unassigned) [Example 3u59], the 50% degradation concentration (DC50) in assay [1] was 11.4 nM. In assay [2], the negative logarithm of the EC50 (pEC50) was 7.59.

In the case of `CNc1cc(=O)n(-c2ccnc3c2cc(CN2CCC(c4c(F)cc(C(=O)N5CCC(CN6CCN(Cc7ccc8c(c7)n(C)c(=O)n8[C@H]7CCC(=O)NC7=O)C[C@@H]6C)CC5)cc4F)CC2)n3C)cc1F` (single isomer, unassigned) [Example 3u61], in assay [1], the DC50 was 1.9 nM. For the same compound, the negative-log EC50 (pEC50) in assay [2] was 8.92.

`CNc1cc(=O)n(-c2ccnc3c2cc(CN2CCC(c4c(F)cc(C(=O)N5CCC(CN6CCN(Cc7ccc8c(c7)n(C)c(=O)n8[C@@H]7CCC(=O)NC7=O)C[C@@H]6C)CC5)cc4F)CC2)n3C)cc1F` (single isomer, unassigned) [Example 3u62]: the 50% degradation concentration (DC50) in assay [1] was 1.2 nM. Besides, the pEC50 in assay [2] was 8.92.

As to `CNc1cc(=O)n(-c2ccnc3c2cc([C@H](C)N2CC=C(c4c(C)cc(C(=O)N5CCC(CN6CCN(c7ccc8c(c7)C7(CC7)C(=O)N8[C@@H]7CCC(=O)NC7=O)C[C@@H]6C)CC5)cc4F)CC2)n3C)cc1F` (single isomer, unassigned) [Example 3u64], in assay [1], the 50% degradation concentration (DC50) was 7.3 nM. For the same compound, the negative-log EC50 (pEC50) in assay [2] was 7.30.

On to `CNc1cc(=O)n(-c2ccnc3c2cc([C@H](C)N2CC=C(c4c(C)cc(C(=O)N5CCC(CN6CCN(Cc7ccc8c(c7)C7(CC7)C(=O)N8[C@H]7CCC(=O)NC7=O)CC6)CC5)cc4F)CC2)n3C)cc1F` (single isomer, unassigned) [Example 3u67], for which the half-maximal degradation concentration (DC50) in assay [1] was determined as 1.4 nM. In addition, the pEC50 in assay [2] is 8.24.

Consider `CNc1cc(=O)n(-c2ccnc3c2cc([C@H](C)N2CC=C(c4c(C)cc(C(=O)N5CCC(CN6CCN(Cc7ccc8c(c7)C7(CC7)C(=O)N8[C@@H]7CCC(=O)NC7=O)CC6)CC5)cc4F)CC2)n3C)cc1F` (single isomer, unassigned) [Example 3u68], for which the DC50 in assay [1] came out at 1 nM. Moreover, the negative-log EC50 (pEC50) in assay [2] is 8.11.

For `CNc1ccn(-c2ccnc3c2cc(CN2CC=C(c4c(F)cc(C(=O)N5CCC(CN6CCN(Cc7ccc8c(c7)n(C7CC7)c(=O)n8[C@H]7CCC(=O)NC7=O)C[C@@H]6C)CC5)cc4F)CC2)n3C)c(=O)c1` (single isomer, unassigned) [Example 3u72], the DC50 in assay [1] was 4.5 nM. This compound gave a pEC50 in assay [2] of 8.72.

For the compound `CNc1ccn(-c2ccnc3c2cc(CN2CC=C(c4c(F)cc(C(=O)N5CCC(CN6CCN(Cc7ccc8c(c7)n(C7CC7)c(=O)n8[C@@H]7CCC(=O)NC7=O)C[C@@H]6C)CC5)cc4F)CC2)n3C)c(=O)c1` (single isomer, unassigned) [Example 3u73], the DC50 in assay [1] is 6.8 nM. In assay [2], this compound had a negative logarithm of the EC50 (pEC50) of 8.62.

Regarding `Cc1cc(C(=O)N2CCC(CN3CCN(Cc4cc5c(cc4F)n([C@H]4CCC(=O)NC4=O)c(=O)n5C)CC3)CC2)cc(F)c1C1=CCN([C@@H](C)c2cc3c(-n4ccc5c(c4=O)CCN5)ccnc3n2C)CC1` (single isomer, unassigned) [Example 3u75], the DC50 in assay [1] was found to be 0.6 nM. This compound gave a pEC50 in assay [2] of 9.00.

Turning to `Cc1cc(C(=O)N2CCC(CN3CCN(Cc4cc5c(cc4F)n([C@@H]4CCC(=O)NC4=O)c(=O)n5C)CC3)CC2)cc(F)c1C1=CCN([C@@H](C)c2cc3c(-n4ccc5c(c4=O)CCN5)ccnc3n2C)CC1` (single isomer, unassigned) [Example 3u76], in assay [1], the half-maximal degradation concentration (DC50) came out at 3.2 nM. Also, the pEC50 in assay [2] is 8.89.

Turning to `CNc1cc(=O)n(-c2ccnc3c2cc(CN2CC=C(c4c(F)cc(C(=O)N5CCC(CN6CCN(Cc7ccc8c(c7)C(C)(C)C(=O)N8[C@H]7CCC(=O)NC7=O)C[C@@H]6C)CC5)cc4F)CC2)n3C)cc1F` (single isomer, unassigned) [Example 3u78], the DC50 in assay [1] is 9.8 nM. In assay [2], the pEC50 is 7.34.

As for `CNc1cc(=O)n(-c2ccnc3c2cc(CN2CC=C(c4c(F)cc(C(=O)N5CCC(CN6CCN(Cc7ccc8c(c7)C(C)(C)C(=O)N8[C@@H]7CCC(=O)NC7=O)C[C@@H]6C)CC5)cc4F)CC2)n3C)cc1F` (single isomer, unassigned) [Example 3u79], in assay [1], the DC50 came out at 15.4 nM. Besides, in assay [2], the pEC50 was 6.97.

Consider `CNc1ccn(-c2ccnc3c2cc([C@H](C)N2CCC(c4c(F)cc(C(=O)N5CCC(CN6CCN(Cc7ccc8c(c7)C(C)(C)C(=O)N8[C@@H]7CCC(=O)NC7=O)C[C@@H]6C)CC5)cc4F)CC2)n3C)c(=O)c1` (single isomer, unassigned) [Example 3u82], for which the 50% degradation concentration (DC50) in assay [1] was found to be 1.1 nM. For the same compound, in assay [2], the negative-log EC50 (pEC50) was 8.96.

Turning to `CNc1cc(=O)n(-c2ccnc3c2cc([C@H](C)N2CC=C(c4c(C)cc(C(=O)N5CCC(CN6CCN(Cc7ccc8c(c7)C(C)(C)C(=O)N8[C@H]7CCC(=O)NC7=O)CC6)CC5)cc4F)CC2)n3C)cc1F` (single isomer, unassigned) [Example 3u88], the half-maximal degradation concentration (DC50) in assay [1] is 3.3 nM. Further, the pEC50 in assay [2] is 7.89.

Consider `CNc1cc(=O)n(-c2ccnc3c2cc([C@H](C)N2CC=C(c4c(C)cc(C(=O)N5CCC(CN6CCN(Cc7ccc8c(c7)C(C)(C)C(=O)N8[C@@H]7CCC(=O)NC7=O)CC6)CC5)cc4F)CC2)n3C)cc1F` (single isomer, unassigned) [Example 3u89], for which, in assay [1], the half-maximal degradation concentration (DC50) stood at 4.1 nM. Besides, the pEC50 in assay [2] is 7.36.

Take `CNc1cc(=O)n(-c2ccnc3c2cc([C@H](C)N2CC=C(c4c(C)cc(C(=O)N5CCC(CN6CCN(Cc7ccc8c(c7)n(C)c(=O)n8[C@H]7CCC(=O)NC7=O)C[C@@H]6C)CC5)cc4F)CC2)n3C)cc1F` (single isomer, unassigned) [Example 3u91]: in assay [1], the DC50 came out at 0.6 nM. Also, the negative logarithm of the EC50 (pEC50) in assay [2] was 8.85.

As for `CNc1cc(=O)n(-c2ccnc3c2cc([C@H](C)N2CC=C(c4c(C)cc(C(=O)N5CCC(CN6CCN(Cc7ccc8c(c7)n(C)c(=O)n8[C@@H]7CCC(=O)NC7=O)C[C@@H]6C)CC5)cc4F)CC2)n3C)cc1F` (single isomer, unassigned) [Example 3u92], the DC50 in assay [1] came out at 0.4 nM. In assay [2], the pEC50 was 8.74.

With `CNc1cc(=O)n(-c2ccnc3c2cc(CN2CCC(c4c(F)cc(C(=O)N5CCC(CN6CCN(Cc7cc8c(cc7F)N([C@H]7CCC(=O)NC7=O)C(=O)C87CC7)CC6)CC5)cc4F)CC2)n3C)cc1F` (single isomer, unassigned) [Example 3u94], the DC50 in assay [1] was 10.2 nM. Further, the pEC50 in assay [2] was 7.62.

Turning to `CNc1cc(=O)n(-c2ccnc3c2cc(CN2CCC(c4c(F)cc(C(=O)N5CCC(CN6CCN(Cc7cc8c(cc7F)N([C@@H]7CCC(=O)NC7=O)C(=O)C87CC7)CC6)CC5)cc4F)CC2)n3C)cc1F` (single isomer, unassigned) [Example 3u95], in assay [1], the half-maximal degradation concentration (DC50) was 18.6 nM. The compound further had a pEC50 in assay [2] of 7.91.

For `CNc1cc(=O)n(-c2ccnc3c2cc([C@H](C)N2CC=C(c4c(C)cc(C(=O)N5CCC(CN6CCN(Cc7ccc8c(c7)C7(CC7)C(=O)N8[C@H]7CCC(=O)NC7=O)C[C@@H]6C)CC5)cc4F)CC2)n3C)cc1F` (single isomer, unassigned) [Example 3u99], in assay [1], the DC50 is 1.1 nM. Besides, in assay [2], the pEC50 is 8.77.

For the compound `CNc1cc(=O)n(-c2ccnc3c2cc([C@H](C)N2CC=C(c4c(C)cc(C(=O)N5CCC(CN6CCN(Cc7ccc8c(c7)C7(CC7)C(=O)N8[C@@H]7CCC(=O)NC7=O)C[C@@H]6C)CC5)cc4F)CC2)n3C)cc1F` (single isomer, unassigned) [Example 3u100], the DC50 in assay [1] turned out to be 1.7 nM. Further, in assay [2], the pEC50 was 8.51.

As for `C[C@H]1CN(Cc2ccc3c(c2)n(C2CC2)c(=O)n3[C@H]2CCC(=O)NC2=O)CCN1CC1CCN(C(=O)c2cc(F)c(C3CCN(Cc4cc5c(-n6ccc7c(c6=O)CCN7)ccnc5n4C)CC3)c(F)c2)CC1` (single isomer, unassigned) [Example 3u107], the 50% degradation concentration (DC50) in assay [1] came to 2.5 nM. In assay [2], the pEC50 was 8.55.

On to `C[C@H]1CN(Cc2ccc3c(c2)n(C2CC2)c(=O)n3[C@@H]2CCC(=O)NC2=O)CCN1CC1CCN(C(=O)c2cc(F)c(C3CCN(Cc4cc5c(-n6ccc7c(c6=O)CCN7)ccnc5n4C)CC3)c(F)c2)CC1` (single isomer, unassigned) [Example 3u108], for which the DC50 in assay [1] was determined as 3.4 nM. Also, the negative logarithm of the EC50 (pEC50) in assay [2] was 8.39.

The values are drawn from patent US20250320206A1, “STAT6 DEGRADERS” (Gilead Sciences, Inc., priority 2024, published 2025).
